According to patent publication US12509431B2, “1,4-dihydroquinazolinone compounds and uses thereof” (Edgewise Therapeutics, Inc., priority 2022, dated 2025):

Tests used:
Format in all cases: biochemical
[1] = system: Rabbit Skeletal myofibrils (rabbit psoas muscle); test: Myofibril ATPase assay (PK/LDH NADH-coupled), skeletal myofibrils
Summary of the method: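 ATPase rate taken as linear-regression slope of A340 (NADH depletion through PK/LDH coupling) over a 75 min kinetic read, with psoas-derived rabbit skeletal myofibrils at pH 7.0. Four-parameter fits of vehicle-normalized activity give EC25 and, where reached, EC50.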

[2] = target: T1, Porcine Ventricle myofibrils (left ventricle of Yucatan minipigs) (Sus scrofa, UniProt P79293); test: Myofibril ATPase assay (PK/LDH NADH-coupled), ventricle myofibrils
T1 construct: Myofibrils from porcine cardiac muscle was isolated from the left ventricle of Yucatan minipigs; tissue Exemplar Genetics; host or cells: left ventricle of Yucatan minipigs
T1 sequence (P79293 whole entry): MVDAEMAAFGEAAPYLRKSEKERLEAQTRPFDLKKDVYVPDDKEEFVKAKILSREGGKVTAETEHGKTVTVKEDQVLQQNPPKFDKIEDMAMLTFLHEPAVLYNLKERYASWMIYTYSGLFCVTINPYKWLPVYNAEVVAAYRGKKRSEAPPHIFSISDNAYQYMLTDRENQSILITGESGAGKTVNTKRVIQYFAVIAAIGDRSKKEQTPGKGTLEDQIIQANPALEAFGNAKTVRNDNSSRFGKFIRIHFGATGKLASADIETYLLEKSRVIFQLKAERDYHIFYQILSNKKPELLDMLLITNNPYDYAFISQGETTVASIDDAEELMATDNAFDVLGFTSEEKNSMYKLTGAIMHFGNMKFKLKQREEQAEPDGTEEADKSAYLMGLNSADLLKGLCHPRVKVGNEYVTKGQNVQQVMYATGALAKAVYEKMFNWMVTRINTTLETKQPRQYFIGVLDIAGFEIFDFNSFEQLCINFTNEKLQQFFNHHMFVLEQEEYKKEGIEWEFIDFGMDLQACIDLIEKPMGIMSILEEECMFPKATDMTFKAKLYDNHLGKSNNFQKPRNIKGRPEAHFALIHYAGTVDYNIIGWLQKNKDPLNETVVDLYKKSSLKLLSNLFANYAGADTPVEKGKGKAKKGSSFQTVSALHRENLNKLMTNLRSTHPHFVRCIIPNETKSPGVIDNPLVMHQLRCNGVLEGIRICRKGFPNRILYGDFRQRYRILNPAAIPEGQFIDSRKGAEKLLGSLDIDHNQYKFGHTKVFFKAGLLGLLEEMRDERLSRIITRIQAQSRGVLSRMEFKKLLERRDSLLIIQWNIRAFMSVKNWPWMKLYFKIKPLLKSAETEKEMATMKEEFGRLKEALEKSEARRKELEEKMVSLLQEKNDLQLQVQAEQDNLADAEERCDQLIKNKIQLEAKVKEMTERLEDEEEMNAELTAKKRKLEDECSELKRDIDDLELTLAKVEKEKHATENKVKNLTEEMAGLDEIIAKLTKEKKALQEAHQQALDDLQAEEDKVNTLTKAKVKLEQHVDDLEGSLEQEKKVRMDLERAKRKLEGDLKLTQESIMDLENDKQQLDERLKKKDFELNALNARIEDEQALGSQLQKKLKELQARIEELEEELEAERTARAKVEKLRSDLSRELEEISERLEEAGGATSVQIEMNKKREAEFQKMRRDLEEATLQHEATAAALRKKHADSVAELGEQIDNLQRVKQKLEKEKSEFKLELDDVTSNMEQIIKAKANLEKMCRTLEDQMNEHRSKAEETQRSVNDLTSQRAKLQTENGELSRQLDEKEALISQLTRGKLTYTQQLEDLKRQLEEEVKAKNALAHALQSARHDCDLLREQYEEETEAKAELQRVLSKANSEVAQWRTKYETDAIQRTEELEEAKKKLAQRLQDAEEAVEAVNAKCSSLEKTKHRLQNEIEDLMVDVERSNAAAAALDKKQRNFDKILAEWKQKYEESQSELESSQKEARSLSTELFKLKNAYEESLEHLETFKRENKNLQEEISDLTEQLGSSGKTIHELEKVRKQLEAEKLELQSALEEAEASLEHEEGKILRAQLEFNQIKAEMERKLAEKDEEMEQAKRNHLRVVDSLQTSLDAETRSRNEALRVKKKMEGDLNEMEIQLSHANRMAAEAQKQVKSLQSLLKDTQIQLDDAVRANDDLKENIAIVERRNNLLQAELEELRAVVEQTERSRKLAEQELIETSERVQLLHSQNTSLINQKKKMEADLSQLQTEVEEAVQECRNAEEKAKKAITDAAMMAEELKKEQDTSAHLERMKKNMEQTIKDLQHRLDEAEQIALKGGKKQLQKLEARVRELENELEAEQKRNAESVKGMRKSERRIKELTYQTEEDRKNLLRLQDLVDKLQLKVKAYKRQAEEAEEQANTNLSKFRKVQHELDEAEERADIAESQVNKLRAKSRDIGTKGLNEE
Summary of the method: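 NADH depletion (A340) coupled through pyruvate kinase/lactate dehydrogenase reports ATPase rate of porcine left-ventricle myofibrils over 75 min kinetic reads. Regression slopes, vehicle-normalized, fitted by 4-parameter logistic give EC25 and, where available, EC50.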

myosin+native RLC = target: T2, myosin+native RLC (Sus scrofa, UniProt P79293); test: NADH-coupled actin-activated ATPase assay, myosin + native RLC; conditions: 1 μM myosin, rabbit skeletal actin, 25° C., 1% DMSO
T2 construct: Full-length myosin was resuspended to 1 mg/mL
T2 sequence (P79293 whole entry): as above
Method: (§1) Full-length myosin was resuspended to 1 mg/mL in a buffer containing 500 mM KCl, 10 mM KPi, 15 mM CDTA, pH 8.5. Triton-X was then added to a final concentration of […], and the suspension was agitated for 15 minutes at room temperature to selectively remove the regulatory light chain (RLC). RLC-removed myosin was then precipitated and collected and resuspended in a buffer containing 400 mM KCl, 50 mM Mops, pH 7, 2 mM MgCl2, and 1 mM DTT. Recombinantly expressed and purified human ventricle RLC was added in a 3-fold molar excess to myosin and incubated on ice for 2 hours to allow for reassociation of the RLC onto myosin. Triton (0.1%) was added to the reaction to prevent any non-specific binding events. RLC-exchanged myosin was then precipitated and collected and resuspended in a buffer containing 12 mM PIPES, pH 6.8, […], 2 mM MgCl2, and 1 mM DTT. RLC removal and exchange were confirmed by SDS-PAGE and proteins were visualized using coomassie stain.
(§2) Myosin was resuspended in buffer A (f.c.=12 mM PIPES, pH 6.8, 30 mM KCl, 2 mM MgCl2, 1 mM DTT, 0.1 mg/mL BSA, 0.01% (v/v) Antifoam 204, and 0.6% (v/v) PK/LDH (final reaction contains ≥3.6 U/mL PK and >5.4 U/mL LDH)) at final concentrations of 1 μM for myosin+native RLC and 2 μM for myosin+removed RLC and myosin+human ventricle RLC. Buffer A was then mixed with an equal volume of buffer B (f.c.=12 mM PIPES, pH 6.8, 30 mM KCl, 2 mM MgCl2, 1 mM DTT, 0.1 mg/mL BSA, 0.01% (v/v) Antifoam 204, 0.5 mM NADH, 1.5 mM phosphoenolpyruvate, 1 mM ATP, and 0.3 mg/mL filamentous rabbit skeletal actin) in a 384-well plate. Dose-dependent compound effects were assessed by adding the compounds at varying concentrations between 100 μM and 2 nM, all with a constant final DMSO concentration of 1% v/v. The reactions were run at a constant temperature of 25° C. in the plate reader to monitor the change in A340 over time. Measurements were taken every 90 sec for 75 min to generate raw time-domain absorbance data, which was processed to normalized reaction rates. Normalized enzymatic rates were calculated, using rates observed in 1% (v/v) in DMSO as 100% and 0 slope as 0%. Compound-specific activity curves were generated by plotting the normalized rates versus compound concentration and fitting the data to a 4-parameter logistic model. In addition to the fit parameters, the IC25% was calculated, relative to the 100% normalized value.

myosin+removed RLC = target: T3, myosin+removed RLC (Sus scrofa, UniProt P79293); test: NADH-coupled actin-activated ATPase assay, myosin + removed RLC; conditions: 2 μM myosin, rabbit skeletal actin, 25° C., 1% DMSO
T3 construct: Full-length myosin was resuspended to 1 mg/mL
T3 sequence (P79293 whole entry): as above
Method: as §1, §2

[3] = target: T4, myosin+human ventricle RLC (Sus scrofa, UniProt P79293); test: NADH-coupled actin-activated ATPase assay, myosin + human ventricle RLC; conditions: 2 μM myosin, rabbit skeletal actin, 25° C., 1% DMSO
T4 construct: Full-length myosin was resuspended to 1 mg/mL
T4 sequence (P79293 whole entry): as above
Method: as §1, §2

Porcine Atria myofibrils = test: Myofibril ATPase assay (PK/LDH NADH-coupled), atria myofibrils
Summary of the method: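 Values are EC25% (and, for inhibitors, EC50%) from 4-parameter logistic fits of activity normalized to vehicle wells. Rates came from linear regression of 340 nm kinetic reads (every 1.5-2 min, 75 min) of NADH-coupled ATP turnover by porcine atria myofibrils.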

Structure (SMILES) | Rabbit Psoas IC25 ([1]; Table 8) | Porcine Ventricle IC25 ([2]; Table 8) | Potency, Full-length myosin + native porcine ventricle RLC (myosin+native RLC) | Potency, Full-length myosin + RLC removed (myosin+removed RLC) | Potency, Full-length myosin + exchanged human ventricle RLC [3] | Porcine Atria IC25 (Porcine Atria myofibrils; Table 8) | Rabbit Psoas IC25 ([1]; Table 7) | Porcine Ventricle IC25 ([2]; Table 7) | Porcine Atria IC25 (Porcine Atria myofibrils; Table 7)
C[C@H](NC(=O)CN1Cc2cc(F)ccc2NC1=O)c1ccc(C#N)cn1 [Compound B172] | 2013 nM | 20930 nM | 12320 nM | >100000 nM | 14390 nM | 2940 nM |  |  | 
C[C@H](NC(=O)C1(N2Cc3c(ccc(F)c3F)NC2=O)CC1)c1ncc(C#N)cc1F [Compound B269] | 60 nM | 150 nM | 590 nM | >100000 nM | 490 nM | 60 nM |  |  | 
C[C@H](NC(=O)CN1C(=O)Nc2cccnc2C12CC2)c1ncc(C#N)cc1F [Compound N26] |  |  | 2170 nM | >100000 nM | 1920 nM |  | 47.64 nM | 1309 nM | 150 nM
